{"source": "paper PMC5458257", "about": "“Identification of JL1037 as a novel, specific, reversible lysine-specific demethylase 1 inhibitor that induce apoptosis and autophagy of AML cells” (Oncotarget, 2017)", "type_in_all_cases": "biochemical", "key": {"[1]": {"target": "T1, Lysine-specific demethylase 1 (LSD1) (Homo sapiens, UniProt O60341)", "T1 construct": "gene KDM1A", "test": "LSD1 Fluorimetric Drug Discovery kit (Enzo BML-AK544), HRP-coupled, H3K4me2 substrate"}, "[2]": {"target": "T2, MAO-B (Homo sapiens, UniProt P27338)", "T2 construct": "gene MAOB", "T2 sequence (P27338 2-520)": "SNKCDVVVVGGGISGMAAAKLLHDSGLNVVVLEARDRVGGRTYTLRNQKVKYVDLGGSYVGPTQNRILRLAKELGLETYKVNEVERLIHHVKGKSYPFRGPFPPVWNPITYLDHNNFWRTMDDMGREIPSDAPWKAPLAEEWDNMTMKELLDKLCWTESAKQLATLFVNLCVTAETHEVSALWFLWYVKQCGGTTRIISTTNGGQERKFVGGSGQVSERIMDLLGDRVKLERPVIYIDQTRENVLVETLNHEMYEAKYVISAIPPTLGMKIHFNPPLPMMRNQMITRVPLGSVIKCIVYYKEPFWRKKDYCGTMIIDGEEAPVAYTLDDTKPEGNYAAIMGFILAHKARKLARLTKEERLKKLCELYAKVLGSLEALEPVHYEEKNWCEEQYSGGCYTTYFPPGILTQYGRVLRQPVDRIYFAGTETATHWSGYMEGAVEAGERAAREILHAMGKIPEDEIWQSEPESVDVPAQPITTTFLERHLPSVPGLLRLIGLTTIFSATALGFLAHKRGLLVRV", "test": "MAO-Glo luminescent enzyme assay (Promega V1401), selectivity test", "from_the_text": "MAO-Glo luminescent enzyme assay (Promega V1401), selectivity test on MAO-B | JL1037 enzymatic inhibitory activity against LSD1, MAO-A and MAO-B."}, "[3]": {"target": "T3, MAO-A (Homo sapiens, UniProt P21397)", "T3 construct": "gene MAOA", "T3 sequence (P21397 1-527)": "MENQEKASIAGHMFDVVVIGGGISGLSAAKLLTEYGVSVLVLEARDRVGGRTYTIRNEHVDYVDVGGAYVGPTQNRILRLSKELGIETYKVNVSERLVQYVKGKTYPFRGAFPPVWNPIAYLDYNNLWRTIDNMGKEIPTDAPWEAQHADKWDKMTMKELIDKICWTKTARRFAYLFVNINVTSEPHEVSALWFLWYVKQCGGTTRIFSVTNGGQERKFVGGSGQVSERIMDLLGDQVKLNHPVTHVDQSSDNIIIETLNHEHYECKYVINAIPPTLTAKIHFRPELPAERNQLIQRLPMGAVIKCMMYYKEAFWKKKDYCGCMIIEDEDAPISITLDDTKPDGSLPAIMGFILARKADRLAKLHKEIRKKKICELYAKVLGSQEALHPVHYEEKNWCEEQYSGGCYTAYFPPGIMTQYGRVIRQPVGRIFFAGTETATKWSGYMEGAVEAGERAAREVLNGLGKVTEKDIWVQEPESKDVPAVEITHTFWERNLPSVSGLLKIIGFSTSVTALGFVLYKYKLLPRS", "test": "MAO-Glo luminescent enzyme assay (Promega V1401), selectivity test", "from_the_text": "MAO-Glo luminescent enzyme assay (Promega V1401), selectivity test on MAO-A | JL1037 enzymatic inhibitory activity against LSD1, MAO-A and MAO-B."}}}
{"substance": "JL1037", "values": [{"measurement": "IC50", "setting": "[1]", "result": 110, "unit": "nM"}, {"measurement": "IC50", "setting": "[2]", "result": 1770, "unit": "nM"}, {"measurement": "IC50", "setting": "[3]", "result": 1920, "unit": "nM"}]}
